The text below walks through data of US20250320184A1 (SIRONAX LTD., priority 2022, published 2025).

The target of the assay is T1, SARM1 (50-724) (Homo sapiens, UniProt Q6SZW1).
T1 sequence (Q6SZW1 50-724): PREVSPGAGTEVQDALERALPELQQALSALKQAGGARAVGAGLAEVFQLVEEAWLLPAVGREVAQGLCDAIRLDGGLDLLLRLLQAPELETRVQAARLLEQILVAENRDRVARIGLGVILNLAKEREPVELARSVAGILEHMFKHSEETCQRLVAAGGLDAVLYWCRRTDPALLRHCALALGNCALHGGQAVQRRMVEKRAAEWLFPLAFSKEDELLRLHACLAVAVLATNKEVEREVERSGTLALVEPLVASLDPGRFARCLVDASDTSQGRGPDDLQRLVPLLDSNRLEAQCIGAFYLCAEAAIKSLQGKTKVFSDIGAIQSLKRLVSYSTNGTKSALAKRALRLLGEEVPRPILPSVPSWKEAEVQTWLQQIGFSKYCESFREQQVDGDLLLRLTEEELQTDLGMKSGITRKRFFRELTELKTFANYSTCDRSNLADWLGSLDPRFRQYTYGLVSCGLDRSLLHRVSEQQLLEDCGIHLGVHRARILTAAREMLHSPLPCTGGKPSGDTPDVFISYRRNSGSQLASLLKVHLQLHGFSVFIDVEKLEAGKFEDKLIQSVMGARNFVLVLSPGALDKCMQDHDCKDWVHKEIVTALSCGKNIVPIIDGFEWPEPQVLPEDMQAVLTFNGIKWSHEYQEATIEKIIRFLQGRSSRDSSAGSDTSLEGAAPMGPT
Nature of the assay: biochemical.

Method: An enzymatic assay was performed in a 384-well plate using Dulbecco's phosphate-buffered saline (PBS) as the reaction buffer. […] The reaction was initiated by adding a mixture of 200 μM nicotinamide mononucleotide (NMN) as activator and 100 μM NAD^+ as substrate. After 1 h of incubation at room temperature, the reaction was terminated with 10 times volume of 70% acetonitrile, then centrifuged at 3800 rpm for 10 min.

Turning to `Cc1nn(C(=O)c2ccncc2)c2cc(NC(C)c3nc(Cl)c(Cl)s3)ccc12` (racemic) [Compound 331, (6-((1-(4,5-dichlorothiazol-2-yl)ethyl)amino)-3-methyl-1H-indazol-1-yl)(pyridin-4-yl)methanone], the IC50 was under 0.1 µM.
With `Cc1cn[nH]c1-n1cnc2c(F)cc(NC(C)c3nc(Cl)c(Cl)s3)cc2c1=O` (racemic) [Example 371, 6-((1-(4,5-dichlorothiazol-2-yl)ethyl)amino)-8-fluoro-3-(4-methyl-1H-pyrazol-5-yl)quinazolin-4(3H)-one], the IC50 was under 0.1 µM.
`CC(Nc1ccc2c(c1)nc(C(N)=O)n2C)c1c(Cl)ccc(F)c1Cl` (racemic) [Compound 263, 5-((1-(2,6-dichloro-3-fluorophenyl)ethyl)amino)-1-methyl-1H-benzo[d]imidazole-2-carboxamide] yielded an IC50 of under 0.1 µM.
As for `Cc1n[nH]c2cc(NS(=O)(=O)c3cccc(Cl)c3Cl)ccc12` [Compound 58, 2,3-dichloro-N-(3-methyl-1H-indazol-6-yl)benzenesulfonamide], the IC50 was under 0.1 µM.
Take `O=C1NCCc2ccc(NS(=O)(=O)c3cc(F)c(F)c(F)c3)cc21` [Compound 34, 3,4,5-trifluoro-N-(1-oxo-1,2,3,4-tetrahydroisoquinolin-7-yl)benzenesulfonamide]: the IC50 was over 1 µM.
For `Cc1ccc(Cl)c(S(=O)(=O)Nc2ccc3c(c2)C(=O)NCC3)c1Cl` [Compound 2, 2,6-dichloro-3-methyl-N-(1-oxo-3,4-dihydro-2H-isoquinolin-7-yl)benzenesulfonamide], the IC50 was under 0.1 µM.
Regarding `Cc1c(F)cccc1S(=O)(=O)Nc1ccc2c(c1)CN(C(=O)OC(C)(C)C)CC2` [Compound 4], the IC50 is over 1 µM.
Molecule `CC(Nc1ccc2snc(C(N)=O)c2c1)c1nc(Cl)c(Cl)s1` (racemic) [Compound 345, 5-[1-(4,5-dichlorothiazol-2-yl)ethylamino]-1,2-benzothiazole-3-carboxamide] registered an IC50 of under 0.1 µM.
The molecule `CC(Nc1ccc2c(c1)C(=O)NC2)c1cccc(Cl)c1Cl` (racemic) [Example 120, 6-((1-(2,3-dichlorophenyl)ethyl)amino)isoindolin-1-one] yielded an IC50 of over 1 µM.
In turn, `CC1(C)CC(=O)c2cc(NS(=O)(=O)c3cccc(Cl)c3Cl)ccc21` [Compound 264, 2,3-dichloro-N-(1,1-dimethyl-3-oxo-2,3-dihydro-1H-inden-5-yl)benzenesulfonamide] displayed a half-maximal inhibitory concentration (IC50) of under 0.1 µM.
For the molecule `Cc1nc(C(C)Nc2ccc3nc[nH]c(=O)c3c2)sc1Cl` (racemic) [Compound 216, 6-((1-(5-chloro-4-methylthiazol-2-yl)ethyl)amino)quinazolin-4(3H)-one], the IC50 was under 0.1 µM.
On to `Cc1c(F)cccc1S(=O)(=O)Nc1ccc2c(c1)C(=O)NCCC2` [Compound 6, 3-fluoro-2-methyl-N-(1-oxo-2,3,4,5-tetrahydro-1H-benzo[c]azepin-8-yl)benzenesulfonamide], for which the IC50 lay within 0.1 to 0.5 µM.
`CC(Nc1ccc2nc[nH]c(=O)c2n1)c1ccc(F)c(Cl)c1Cl` (single isomer, unassigned) [Compound 385] came in with an IC50 of over 1 µM.
The molecule `CC1C(=O)Nc2cc(NS(=O)(=O)c3cccc(Cl)c3Cl)ccc21` (stereo not drawn) [Compound 235] returned an IC50 of under 0.1 µM.
`Cc1snc(C(C)Nc2ccc3nc[nH]c(=O)c3c2)c1Cl` (racemic) [Compound 260, 6-((1-(4-chloro-5-methylisothiazol-3-yl)ethyl)amino)quinazolin-4(3H)-one] returned an IC50 of 0.1 to 0.5 µM.
Regarding `Cc1cn(CC(N)=O)c(=O)c2nc(NC(C)c3nn(C)c(Cl)c3Cl)ccc12` (racemic) [Compound 324, 2-(2-((1-(4,5-dichloro-1-methyl-1H-pyrazol-3-yl)ethyl)amino)-5-methyl-8-oxo-1,7-naphthyridin-7(8H)-yl)acetamide], the IC50 is under 0.1 µM.
Consider `CC(Nc1ccc2c(C(F)(F)F)n(CC(N)=O)nc2c1)c1nc(Cl)c(Cl)s1` (single isomer, unassigned) [Compound 368], for which the IC50 is over 1 µM.
Consider `CC(Nc1ccc2nc[nH]c(=O)c2n1)c1c(F)ccc(Cl)c1Cl` (racemic) [Compound 349, 6-((1-(2,3-dichloro-6-fluorophenyl)ethyl)amino)pyrido[3,2-d]pyrimidin-4(3H)-one], for which the IC50 was under 0.1 µM.
In turn, `CC(Nc1ccc2c(c1)NC(=O)CC2)c1cccc(Cl)c1Cl` (racemic) [Example 121, 7-((1-(2,3-dichlorophenyl)ethyl)amino)-3,4-dihydroquinolin-2(1H)-one] registered an IC50 of 0.5 to 1 µM.
`CC(Nc1ccc2c(c1)N(C(N)=O)CC2(C)C)c1nc(Cl)c(Cl)s1` (racemic) [Compound 276, 6-((1-(4,5-dichlorothiazol-2-yl)ethyl)amino)-3,3-dimethylindoline-1-carboxamide] returned an IC50 of under 0.1 µM.
For the molecule `Cc1nn(CC(N)=O)c(=O)c2cc(NC(C)c3nc(Cl)c(Cl)s3)ccc12` (single isomer, unassigned) [Compound 358], the IC50 was over 1 µM.
Molecule `CC(Nc1ccc2c(c1)C(=O)NCC2)c1cc(Cl)cc(Cl)n1` (racemic) [Example 97, 7-((1-(4,6-dichloropyridin-2-yl)ethyl)amino)-3,4-dihydroisoquinolin-1(2H)-one] registered an IC50 of 0.5 to 1 µM.
Take `O=C1Nc2cc(NS(=O)(=O)c3cccc(Cl)c3Cl)ccc2C12CC2` [Compound 208, 2,3-dichloro-N-(2′-oxospiro[cyclopropane-1,3′-indolin]-6′-yl)benzenesulfonamide]: the IC50 was under 0.1 µM.
Consider `CC(Nc1ccc2c(c1)N(CCO)C(=O)C2(C)C)c1nc(Cl)c(Cl)s1` (racemic) [Compound 277, 6-((1-(4,5-dichlorothiazol-2-yl)ethyl)amino)-1-(2-hydroxyethyl)-3,3-dimethylindolin-2-one], for which the IC50 is under 0.1 µM.
Then `CC(Nc1ccc2cc[nH]c(=O)c2c1)c1nn(C)c(Cl)c1Cl` (racemic) [Compound 256, 7-((1-(4,5-dichloro-1-methyl-1H-pyrazol-3-yl)ethyl)amino)isoquinolin-1(2H)-one], with under 0.1 µM.
`CC(Nc1ccc2cc[nH]c(=O)c2c1)c1cccc(Cl)c1` (racemic) [Example 108, 7-((1-(3-chlorophenyl)ethyl)amino)isoquinolin-1(2H)-one]: the IC50 was in the range of 0.1 to 0.5 µM.
In turn, `O=C1NCCc2ccc(NS(=O)(=O)N3CCCC4CCCCC43)cc21` (mixture of isomers) [Example 170, N-(1-oxo-1,2,3,4-tetrahydroisoquinolin-7-yl)octahydroquinoline-1(2H)-sulfonamide] had an IC50 of over 1 µM.
`Cc1cc(F)cc(C2(Nc3ccc4c(c3)C(=O)N(C)CC4)COC2)c1` [Example 175, 7-((3-(3-fluoro-5-methylphenyl)oxetan-3-yl)amino)-2-methyl-3,4-dihydroisoquinolin-1(2H)-one] showed an IC50 of over 1 µM.
`O=c1[nH]ccc2ccc(OC(CO)c3cccc(Cl)c3Cl)cc12` (stereo not drawn) [Example 228, 7-(1-(2,3-dichlorophenyl)-2-hydroxyethoxy)isoquinolin-1(2H)-one] had an IC50 of 0.1 to 0.5 µM.
To `Clc1cccc(C(Nc2ccc3cccnc3c2)C2CCC2)c1Cl` (stereo not drawn) [Example 179, N-(cyclobutyl(2,3-dichlorophenyl)methyl)quinolin-7-amine] belongs 0.1 to 0.5 µM; to `CC(C)(O)C(Nc1ccc2cc[nH]c(=O)c2c1)c1cccc(Cl)c1Cl` (racemic) [Compound 253, 7-((1-(2,3-dichlorophenyl)-2-hydroxy-2-methylpropyl)amino)isoquinolin-1(2H)-one], under 0.1 µM.
On to `O=S(=O)(Nc1ccc(Cc2cncs2)cc1)c1cccc(Cl)c1Cl` [Compound 251, 2,3-dichloro-N-(4-(thiazol-5-ylmethyl)phenyl)benzenesulfonamide], for which the IC50 was under 0.1 µM.
Turning to `Cc1nc(C(C)Nc2ccc3c(C)n(CC(N)=O)nc3c2)sc1Cl` (racemic) [Compound 343, 2-(6-((1-(5-chloro-4-methylthiazol-2-yl)ethyl)amino)-3-methyl-2H-indazol-2-yl)acetamide], the IC50 was under 0.1 µM.
Turning to `CC(Nc1cc(F)c2ncn(-c3ccn[nH]3)c(=O)c2c1)c1nc(Cl)c(Cl)s1` (racemic) [Example 356rac, 6-((1-(4,5-dichlorothiazol-2-yl)ethyl)amino)-8-fluoro-3-(1H-pyrazol-5-yl)quinazolin-4(3H)-one], the IC50 was under 0.1 µM.
To `CC1N(C(=O)CC(N)=O)c2cc(NS(=O)(=O)c3cccc(Cl)c3Cl)ccc2C1(C)C` (racemic) [Compound 329, 3-(6-((2,3-dichlorophenyl)sulfonamido)-2,3,3-trimethylindolin-1-yl)-3-oxopropanamide] belongs under 0.1 µM; to `Cc1cc(F)cc(C(C)Nc2ccc3c(c2)C(=O)NCC3)c1` (racemic) [Example 93, 7-((1-(3-fluoro-5-methylphenyl)ethyl)amino)-3,4-dihydroisoquinolin-1(2H)-one], 0.5 to 1 µM.
In turn, `COc1nccc(C(C)Nc2ccc3c(c2)C(=O)NCC3)c1Cl` (single isomer, unassigned) [Example 95] yielded an IC50 of 0.5 to 1 µM.
`CC(Nc1ccc2cn[nH]c(=O)c2c1)c1c(Cl)ccc(F)c1Cl` (stereo not drawn) [Example 199] displayed an IC50 of under 0.1 µM.
Consider `C[C@@H](Nc1ccc2c(c1)NC(=O)C2(C)C)c1nc(Cl)c(Cl)s1` (single isomer, unassigned) [Compound 234], for which the IC50 was under 0.1 µM.
